Results: article PMC12022903, “Evaluation of drug-drug interaction between Suraxavir Marboxil (GP681) and itraconazole, and assessment of the impact of gene polymorphism” (Frontiers in Pharmacology, 2025)
“And” between values parts separate entries of the source, which are not always exact repeats. Identical values can stand only once. Like-named read-outs stand apart in the source and are kept apart here.

Experiments:
[1] = set-up: method as in Phase I study; details: ref Phase I study, cited from earlier work
MDR1 = tested on: MDR1; set-up: method as in unpublished data; details: preclinical studies; ref unpublished data; cited from earlier work
plasma protein = tested on: plasma protein; set-up: method as in unpublished data; details: preclinical studies; ref unpublished data; cited from earlier work
OAT3 = tested on: OAT3; set-up: method as in unpublished data; details: preclinical studies; ref unpublished data; cited from earlier work
OATP1B1 = tested on: OATP1B1; set-up: method as in unpublished data; details: preclinical studies; ref unpublished data; cited from earlier work
[2] = set-up: method as in unpublished data; details: after oral GP681; ref unpublished data; cited from earlier work
[3] = tested on: avian influenza virus strains; details: ref unpublished data; cited from earlier work
OAT1 = tested on: OAT1; set-up: method as in unpublished data; details: preclinical studies; ref unpublished data; cited from earlier work
CYP3A4 = details: preclinical in vitro studies; cited from earlier work
BCRP = tested on: BCRP; set-up: method as in unpublished data; details: preclinical studies; ref unpublished data; cited from earlier work
[4] = for GP1707D07 concentration: Period 1 GP681 monotherapy, individual subjects; for GP1707D07 concentration, Geo Mean / GP1707D07 concentration, Mean: plasma; for GP1707D07 concentration, Geo Mean: Geo Mean of subjects 301-312, Period 2 GP681-itraconazole co-administration; for GP1707D07 concentration, Mean: Mean of subjects 301-312, Period 2 GP681-itraconazole co-administration
OATP1B3 = tested on: OATP1B3; set-up: method as in unpublished data; details: preclinical studies; ref unpublished data; cited from earlier work
cytochrome P450 (CYP) = tested on: cytochrome P450 (CYP); set-up: method as in unpublished data; details: preclinical studies; ref unpublished data; cited from earlier work

O=C1c2c(O)c(=O)ccn2N([C@@H]2c3ccccc3SCc3c2ccc(F)c3F)[C@@H]2COC3(CC3)CN12 [GP1707D07]
C24 ([1]; all tested dose cohorts (20 mg–80 mg)): > 6.87 ng/mL
time maintained above the target concentration (6.87 ng/mL) ([1]; dose cohorts 20 mg–80 mg): 72 to 136 h
substrate for the MDR1 transporter (MDR1): Neither Suraxavir Marboxil (GP681) nor its metabolite, GP1707D07, serves as substrates
plasma protein binding rate (plasma protein): high plasma protein binding rate
inhibition of transport activity of OAT3 (OAT3): nor do they inhibit the transport activity
inhibition of transport activity of OATP1B1 (OATP1B1): nor do they inhibit the transport activity
share of the total radioactivity in serum [2]: approximately 95.4%
in vitro antiviral activity (average EC50 and EC90) compared with baloxavir [3]: better in vitro antiviral activity
in vitro inhibitory activity against avian influenza virus strains [3]: inhibitory activity against all tested avian influenza virus strains
inhibition of transport activity of OAT1 (OAT1): nor do they inhibit the transport activity
substrate of CYP3A4 (CYP3A4): is a substrate of CYP3A4
substrate for the BCRP transporter (BCRP): Neither Suraxavir Marboxil (GP681) nor its metabolite, GP1707D07, serves as substrates
time from which GP1707D07 concentrations exceed the clinical effective concentration ([4]; GP681 20 mg + itraconazole, post-dose, threshold 6.87 ng/mL): 1 h
GP1707D07 concentration ([4]; 0.5h): 17.9 ng/mL and 0.6 ng/mL and 10.8 ng/mL and 2.8 ng/mL and 8.3 ng/mL and 1.4 ng/mL
GP1707D07 concentration ([4]; 1h): 23.5 ng/mL and 1.8 ng/mL and 16.5 ng/mL and 6.2 ng/mL and 10.1 ng/mL and 5.6 ng/mL
GP1707D07 concentration ([4]; 2h): 33.1 ng/mL and 4.5 ng/mL and 26.9 ng/mL and 7.2 ng/mL and 12.6 ng/mL and 9.4 ng/mL
GP1707D07 concentration ([4]; 3h): 44.4 ng/mL and 11.9 ng/mL and 25.1 ng/mL and 6.4 ng/mL and 14.2 ng/mL and 10.4 ng/mL
GP1707D07 concentration ([4]; 4h): 36.1 ng/mL and 13.4 ng/mL and 24.0 ng/mL and 5.7 ng/mL and 15.4 ng/mL and 11.0 ng/mL
GP1707D07 concentration ([4]; 5h): 30.8 ng/mL and 14.9 ng/mL and 20.4 ng/mL and 7.0 ng/mL and 15.5 ng/mL and 12.0 ng/mL
GP1707D07 concentration ([4]; 6h): 30.7 ng/mL and 18.0 ng/mL and 19.4 ng/mL and 7.0 ng/mL and 15.2 ng/mL and 11.0 ng/mL
GP1707D07 concentration ([4]; 8h): 24.5 ng/mL and 14.2 ng/mL and 17.9 ng/mL and 6.9 ng/mL and 13.5 ng/mL and 9.5 ng/mL
GP1707D07 concentration ([4]; 12h): 21.5 ng/mL and 12.6 ng/mL and 14.5 ng/mL and 6.6 ng/mL and 11.1 ng/mL and 8.8 ng/mL and 20.0 ng/mL
GP1707D07 concentration ([4]; 24h): 17.5 ng/mL and 10.3 ng/mL and 12.6 ng/mL and 5.4 ng/mL and 10.1 ng/mL and 6.3 ng/mL and 14.7 ng/mL
GP1707D07 concentration ([4]; 36h): 14.8 ng/mL and 8.1 ng/mL and 10.5 ng/mL and 4.4 ng/mL and 8.8 ng/mL and 5.4 ng/mL and 11.8 ng/mL
GP1707D07 concentration ([4]; 48h): 12.3 ng/mL and 6.9 ng/mL and 7.4 ng/mL and 3.9 ng/mL and 6.7 ng/mL and 5.1 ng/mL and 9.0 ng/mL
GP1707D07 concentration ([4]; 72h): 7.8 ng/mL and 5.1 ng/mL and 4.9 ng/mL and 3.2 ng/mL and 6.0 ng/mL and 3.6 ng/mL and 7.6 ng/mL
GP1707D07 concentration ([4]; 120h): 4.8 ng/mL and 3.5 ng/mL and 3.2 ng/mL and 1.7 ng/mL and 4.0 ng/mL and 2.1 ng/mL and 3.6 ng/mL
GP1707D07 concentration ([4]; 168h): 2.4 ng/mL and 2.0 ng/mL and 1.9 ng/mL and 1.1 ng/mL and 2.2 ng/mL and 1.3 ng/mL
GP1707D07 concentration ([4]; 264h): 1.3 ng/mL and 1.0 ng/mL and 0.8 ng/mL and 0.7 ng/mL
GP1707D07 concentration, Geo Mean ([4]; D26, 0.5h): 4.4 ng/mL
GP1707D07 concentration, Geo Mean ([4]; D26, 1h): 8.5 ng/mL
GP1707D07 concentration, Geo Mean ([4]; D26, 2h): 15.2 ng/mL
GP1707D07 concentration, Geo Mean ([4]; D26, 3h): 17.9 ng/mL
GP1707D07 concentration, Geo Mean ([4]; D26, 4h): 19.7 ng/mL
GP1707D07 concentration, Geo Mean ([4]; D26, 5h): 20.9 ng/mL
GP1707D07 concentration, Geo Mean ([4]; D26, 6h): 20.4 ng/mL
GP1707D07 concentration, Geo Mean ([4]; D26, 8h): 19.0 ng/mL
GP1707D07 concentration, Geo Mean ([4]; D26, 12h): 16.7 ng/mL
GP1707D07 concentration, Geo Mean ([4]; D26, 24h): 14.9 ng/mL
GP1707D07 concentration, Geo Mean ([4]; D26, 36h): 13.5 ng/mL
GP1707D07 concentration, Geo Mean ([4]; D26, 48h): 12.1 ng/mL
GP1707D07 concentration, Geo Mean ([4]; D26, 72h): 9.6 ng/mL
GP1707D07 concentration, Geo Mean ([4]; D26, 120h): 6.8 ng/mL
GP1707D07 concentration, Geo Mean ([4]; D26, 168h): 5.1 ng/mL
GP1707D07 concentration, Geo Mean ([4]; D26, 264h): 3.2 ng/mL
GP1707D07 concentration, Mean ([4]; D26, 0h): 0.0 ng/mL
GP1707D07 concentration, Mean ([4]; D26, 0.5h): 6.4 ng/mL
GP1707D07 concentration, Mean ([4]; D26, 1h): 10.4 ng/mL
GP1707D07 concentration, Mean ([4]; D26, 2h): 17.0 ng/mL
GP1707D07 concentration, Mean ([4]; D26, 3h): 19.7 ng/mL
GP1707D07 concentration, Mean ([4]; D26, 4h): 21.3 ng/mL
GP1707D07 concentration, Mean ([4]; D26, 5h): 22.0 ng/mL
GP1707D07 concentration, Mean ([4]; D26, 6h): 21.6 ng/mL
GP1707D07 concentration, Mean ([4]; D26, 8h): 20.0 ng/mL
GP1707D07 concentration, Mean ([4]; D26, 12h): 17.6 ng/mL
GP1707D07 concentration, Mean ([4]; D26, 24h): 15.6 ng/mL
GP1707D07 concentration, Mean ([4]; D26, 36h): 14.2 ng/mL
GP1707D07 concentration, Mean ([4]; D26, 48h): 12.5 ng/mL
GP1707D07 concentration, Mean ([4]; D26, 72h): 10.1 ng/mL
GP1707D07 concentration, Mean ([4]; D26, 120h): 7.1 ng/mL
GP1707D07 concentration, Mean ([4]; D26, 168h): 5.4 ng/mL
GP1707D07 concentration, Mean ([4]; D26, 264h): 3.3 ng/mL
average ratio of GP1707D07 concentration at each time point (Period 2: Period 1) ([4]; within 24 h post-dose): 1.7–2.0
inhibition of transport activity of OATP1B3 (OATP1B3): nor do they inhibit the transport activity
metabolizing enzymes (cytochrome P450 (CYP)): mainly metabolized by cytochrome P450 (CYP) 1A2, CYP 2C8, and CYP 3A4
